Data as given in BindingDB's records for PubMed 35124530 (Tsinghua University, 2022).

Experiment: Antagonist activity at CXCR4 receptor in human SUP-T1 cells assessed as reduction in SDF-1alpha-stimulated cell migration and measured by CellTiter-96 assay

IC50: 236 nM
Compound: N=C(N)NCCC[C@H](NCc1ccccn1)C(=O)NCc1ccc(CNCCCNC2CCCCC2)cc1
